# Patent US4786635A, “Novel benzothiazine derivatives” (Santen Pharmaceutical Co., Ltd., priority 1985, dated 1988)
# Structures can show the parent of a compound that is named as a salt.
# System: Isolated guinea-pig taenia coli
# Assay: calcium-antagonistic activity: inhibition of CaCl2-induced contraction of isolated guinea-pig taenia coli
# Format: cell-based
# Details: Cavia porcellus, Ca^++ -free Krebs solution, 32° C., test compound 5 minutes before CaCl2 (3×10^-4 M), isotonic recording, read-out: IC50 (concentration of the test compound which elicited 50% inhibition of Ca^++ -induced contraction)
# Experimental: (Method for mesurement of calcium-antagonistic activity) Isolated guinea-pig taenia coli was suspended in a 20 ml organ bath filled with Krebs solution at32° C. and bubbled with 5% carbon dioxide in oxygen. After equilibration, the muscle was suspended in Ca^++ -free Krebs solution. The muscle was then exposed to the test compound for 5 minutes before the addition of CaCl2, and the contraction induced by CaCl2 (3×10^-4 M) was recorded isotonically. The calcium-antagonistic activity was represented by the concentration of the test compound which elicited 50% inhibition (IC50) of Ca^++ -induced contraction.
row,SMILES,IC50
1,"COc1ccc(OCCCN(C)CCOc2ccc3c(c2)OCO3)c(C2Sc3ccccc3N(C)C2=O)c1 (stereo not shown) [Compound B, 3,4-dihydro-2-[5-methoxy-2-[3-[N-methyl-N-[2-[(3,4-methylenedioxy)phenoxy]ethyl]amino]propoxy]phenyl]-4-methyl-3-oxo-2H-1,4-benzothiazine fumarate]",240 nM
2,"COc1ccc(OCCCCN(C)CCOc2ccc(OC)c(OC)c2)c(C2Sc3ccccc3N(C)C2=O)c1 (stereo not shown) [Compound C, 3,4-dihydro-2-[5-methoxy-2-[4-[N-methyl-N-[2-[(3,4-dimethoxy)phenoxy]ethyl]amino]butoxy]phenyl]-4-methyl-3-oxo-2H-1,4-benzothiazine oxalate]",290 nM
3,"COc1ccc(OCCCCN(C)CCc2ccc(OC)c(OC)c2)c(C2Sc3ccccc3N(C)C2=O)c1 (stereo not shown) [Reference Compound, 3,4-dihydro-2-[5-methoxy-2-[4-[N-methyl-(3,4-dimethoxy)phenetylamino]butoxy]phenyl]-4-methyl-3-oxo-2H-1,4-benzothiazine oxalate, reference compound]",3200 nM
4,"COc1ccc(OCCCCN(C)CCOc2ccc3c(c2)OCO3)c(C2Sc3ccccc3N(C)C2=O)c1 (stereo not shown) [Compound A, 3,4-dihydro-2-[5-methoxy-2-[4-[N-methyl-N-[2-[(3,4-methylenedioxy)phenoxy]ethyl]amino]butoxy]phenyl]-4-methyl-3-oxo-2H-1,4-benzothiazine oxalate]",320 nM
